We go through one substance from patent EP3072514A1, “Novel oral anticoagulants (NOACs) for preventing development and aggravation of atrial fibrillation” (Université Pierre et Marie Curie - Paris 6 (UPMC), priority 2015, dated 2016).

Holding throughout (assay type): in vivo, Male OFA Sprague-dawley rats
In assay [1] the test system is blood coagulation. As to the kind of experiment: Thrombin time (TT) on blood collected by cardiac puncture at sacrifice of I/R rats. As to conditions: subcutaneous osmotic minipump, with reference to the mean value of sham animals. The text has this: • Figure 1 is a combination of two graphs showing left atrium (LA) area after one month of treatment with DTI Dabigatran (A) or S35792 (B). Vehicle (V) is 60% H2O/40% PEG 300 for dabigatran and saline for S35972. Treatment of rats started just after thoracotomy without (Sham) or with occlusion of left coronary artery followed by reperfusion (I/R). […] Vehicle (V) is 60% H2O/40% PEG 300 for dabigatran and saline for S35972. Treatment of rats started just after thoracotomy without (Sham) or with occlusion of left coronary artery followed by reperfusion (I/R). Results are presented as mean +/- S.E.M. * P<0.05; ** P<0.001, *** P<0.001 vs Sham; #P<0.05 vs untreated I/R. • Figure 3 is a combination of two graphs showing thrombin time (TT), which reflects anticoagulant activity, and plasma concentrations of Dabigatran (A) and S35792 (B) in rats after throracotomy with occlusion of left coronary artery followed by reperfusion (I/R). Vehicle (V) is 60% H2O/40% PEG 300 for dabigatran and saline for S35972. […] DTI plasma levels are quantified using LC-MS/MS. TT are expressed as mean +/- S.E.M with reference to the mean value of sham animals that underwent thoracotomy only. *** P<0.001 vs untreated I/R. • Figure 4 is a combination of three graphs showing left atrium (LA) area (A) and diameter (B) and left ventricle end-diastolic (LVED) diameter (C) after two months of treatment with S35972. […] LA area was measured by bidimensional echocardiography. LA and LVED diameters were measured in time-motion mode. […] AF duration is measured as the time between the end of the electric stimulation and the return to sinusoidal rhythm. […] Expression of mRNA was measured with real-time qPCR. […] Expression of mRNA was measured with real-time qPCR. […] Expression of mRNA was measured with real-time qPCR. […] LA area was measured by bidimensional echocardiography. LVED and LA diameters were measured in time-motion mode. […] AF duration is measured as the time between the end of the electric stimulation and return to sinusoidal rhythm. […]

Assay [2] deals with rats with occlusion of left coronary artery followed by reperfusion (I/R). The assay is described as follows: Echocardiographic evaluation of left atrium and left ventricle in rats after ischemia/reperfusion (I/R). The text has this: • Figure 1 is a combination of two graphs showing left atrium (LA) area after one month of treatment with DTI Dabigatran (A) or S35792 (B). Vehicle (V) is 60% H2O/40% PEG 300 for dabigatran and saline for S35972. Treatment of rats started just after thoracotomy without (Sham) or with occlusion of left coronary artery followed by reperfusion (I/R). […] Vehicle (V) is 60% H2O/40% PEG 300 for dabigatran and saline for S35972. Treatment of rats started just after thoracotomy without (Sham) or with occlusion of left coronary artery followed by reperfusion (I/R). Results are presented as mean +/- S.E.M. * P<0.05; ** P<0.001, *** P<0.001 vs Sham; #P<0.05 vs untreated I/R. • Figure 3 is a combination of two graphs showing thrombin time (TT), which reflects anticoagulant activity, and plasma concentrations of Dabigatran (A) and S35792 (B) in rats after throracotomy with occlusion of left coronary artery followed by reperfusion (I/R). Vehicle (V) is 60% H2O/40% PEG 300 for dabigatran and saline for S35972. Tests were carried out on blood collected by cardiac puncture at sacrifice (i.e. for Dabigatran, 90 minutes after last oral administration). DTI plasma levels are quantified using LC-MS/MS. TT are expressed as mean +/- S.E.M with reference to the mean value of sham animals that underwent thoracotomy only. *** P<0.001 vs untreated I/R. • Figure 4 is a combination of three graphs showing left atrium (LA) area (A) and diameter (B) and left ventricle end-diastolic (LVED) diameter (C) after two months of treatment with S35972. Treatment of rats started just after thoracotomy without (Sham) or with occlusion of left coronary artery followed by reperfusion (I/R). LA area was measured by bidimensional echocardiography. LA and LVED diameters were measured in time-motion mode. Results are presented as mean +/- S.E.M. *P<0.05, **P<0.01 and *** P<0.001 vs Sham; ^#P<0.05 ^###P<0.001 vs untreated I/R. • Figure 5 is a graph showing the impact of S35972 administration during two months on the duration of an episode of AF in rats undergone thoracotomy without (Sham) or with occlusion of left coronary artery followed by reperfusion (I/R). AF duration is measured as the time between the end of the electric stimulation and the return to sinusoidal rhythm. […] Rats undergone thoracotomy without (Sham) or with occlusion of left coronary artery followed by reperfusion (I/R). Expression of mRNA was measured with real-time qPCR. […] Treatment of rats started one month post thoracotomy without (Sham) or with occlusion of left coronary artery followed by reperfusion (I/R). LA area was measured by bidimensional echocardiography. LVED and LA diameters were measured in time-motion mode. […] Rats undergone thoracotomy without (Sham) or with occlusion of left coronary artery followed by reperfusion (I/R). AF duration is measured as the time between the end of the electric stimulation and return to sinusoidal rhythm. Results are presented as mean +/- S.E.M.
Animals were anesthetized with 30 mg/kg sodium pentobarbital, and then intubated and ventilated at 60 respirations/min while body temperature was maintained at 37°C. Rats underwent thoracotomy and their left coronary artery was either left intact (Sham) or occluded with a 4.0 silk suture at 1 mm from the artery origin. Ischemia was maintained for 30 min and the clamp was removed to initiate a definitive reperfusion phase. […]

In assay [3] the test system is β-MHC. As to the kind of experiment: mRNA expression by real-time qPCR in atria and ventricle of I/R rats. The text has this: • Figure 1 is a combination of two graphs showing left atrium (LA) area after one month of treatment with DTI Dabigatran (A) or S35792 (B). Vehicle (V) is 60% H2O/40% PEG 300 for dabigatran and saline for S35972. Treatment of rats started just after thoracotomy without (Sham) or with occlusion of left coronary artery followed by reperfusion (I/R). […] Vehicle (V) is 60% H2O/40% PEG 300 for dabigatran and saline for S35972. Treatment of rats started just after thoracotomy without (Sham) or with occlusion of left coronary artery followed by reperfusion (I/R). Results are presented as mean +/- S.E.M. * P<0.05; ** P<0.001, *** P<0.001 vs Sham; #P<0.05 vs untreated I/R. • Figure 3 is a combination of two graphs showing thrombin time (TT), which reflects anticoagulant activity, and plasma concentrations of Dabigatran (A) and S35792 (B) in rats after throracotomy with occlusion of left coronary artery followed by reperfusion (I/R). Vehicle (V) is 60% H2O/40% PEG 300 for dabigatran and saline for S35972. Tests were carried out on blood collected by cardiac puncture at sacrifice (i.e. for Dabigatran, 90 minutes after last oral administration). DTI plasma levels are quantified using LC-MS/MS. TT are expressed as mean +/- S.E.M with reference to the mean value of sham animals that underwent thoracotomy only. *** P<0.001 vs untreated I/R. • Figure 4 is a combination of three graphs showing left atrium (LA) area (A) and diameter (B) and left ventricle end-diastolic (LVED) diameter (C) after two months of treatment with S35972. Treatment of rats started just after thoracotomy without (Sham) or with occlusion of left coronary artery followed by reperfusion (I/R). LA area was measured by bidimensional echocardiography. LA and LVED diameters were measured in time-motion mode. Results are presented as mean +/- S.E.M. *P<0.05, **P<0.01 and *** P<0.001 vs Sham; ^#P<0.05 ^###P<0.001 vs untreated I/R. • Figure 5 is a graph showing the impact of S35972 administration during two months on the duration of an episode of AF in rats undergone thoracotomy without (Sham) or with occlusion of left coronary artery followed by reperfusion (I/R). AF duration is measured as the time between the end of the electric stimulation and the return to sinusoidal rhythm. […] Rats undergone thoracotomy without (Sham) or with occlusion of left coronary artery followed by reperfusion (I/R). Expression of mRNA was measured with real-time qPCR. […] Expression of mRNA was measured with real-time qPCR. […] Expression of mRNA was measured with real-time qPCR. […] LA area was measured by bidimensional echocardiography. LVED and LA diameters were measured in time-motion mode. […] AF duration is measured as the time between the end of the electric stimulation and return to sinusoidal rhythm. […]
On the technique in general: Quantitative PCR measures a nucleic acid by following its amplification.

Setting [4] is: 6 mg/kg/d during one month, treatment started one month after the I/R episode.
Where [5] appears, read: 6 mg/kg/day for 8 weeks, started just after I/R.
The mark [6] stands for this setting: four weeks post-I/R, one month of treatment started just after I/R.

In the case of “4-oxo-3-(2-pyridin-2-ylethylamino)-4,6,7,8-tetrahydro-pyrrolo[1,2-a]pyrazine-6-carboxylic acid 2-ethylcarbamoyl methoxy-benzylamide [S35972]”, the “thrombin time increases by a factor” value in assay [1] (3 mg/kg/day) is listed as 3. Further, the “thrombin time increases by a factor” value in assay [1] (6 mg/kg/day) is listed as 3. In addition, the left atrium area entry in assay [2] (3 mg/kg/day for 8 weeks, started just after I/R) is “decreases the left atrium area”. For the same substance, in assay [2] (setting [4]), the left atrium diameter result was “decreased to an intermediate value between Sham and I/R rats”; the “left ventricle end-diastolic diameter” value is on record as “had no effect”. In addition, in assay [2] (6 mg/kg/d during one month, treatment started one month after the I/R episode (established atrial dilatation)), the left atrium area result is recorded as “significantly reduced”. Also, in assay [2] (setting [5]), the atrial diameter result is “significantly reduces”, the left atrium area entry is on record as “decreases the left atrium area” and the “ventricular diameter (LVED diameter)” value is reported as “significantly reduces”. In assay [2] (setting [6]), the “dilatation of left atrium (left atrium (LA) area)” value was “prevent the dilatation of left atrium”, the “ventricular diameter (LVED diameter)” value was “do not impact” and the “ventricular function (fractional shortening)” value was “do not impact”. Also, the “synthesis of β-MHC (mRNA) in left atrium” value in assay [3] (atrium, 6 mg/kg/day for 8 weeks post I/R) is “prevents the synthesis of β-MHC”. Further, the “synthesis of β-MHC (mRNA) in the ventricle” value in assay [3] (ventricle, 6 mg/kg/day post I/R) is on record as “prevents the synthesis of β-MHC”.
